The text below walks through data of the Kinase Knowledgebase extract (Sharma et al. 2016).

Values after ≈ are worked out from the molar mass of the structure shown. Where only a bound is given, the exact number is not on record here.

Assay [1] addresses EGFR (UniProt P00533).
Assay [2] addresses MAPK14 (UniProt Q16539). In words: CSBP Inhibition.
Assay [3] has as its target EGFR (murine) (UniProt P00533). Conditions: f/l-herc.
Assay [4] concerns the target EGFR (murine) (UniProt P00533). Conditions: nih3t3/c7.
Assay [5] deals with EGFR (mouse) (UniProt P00533). Conditions: Swiss 3T3.
For assay [6], the target named is EGFR (UniProt P00533). Nature of the assay: Inhibition of EGFr Enzyme.
In assay [7] the target is EGFR (UniProt P00533). This is another data set of the same source.
The target in assay [8] is EGFR (human) (UniProt P00533). Conditions: hn5.
Assay [9] addresses ROCK2 (UniProt O75116). In words: Inhibition of ROCK-II Kinase Activity. To be noted: concentration not given here.
In assay [10] the target is MAPK14 (UniProt Q16539). In words: Inhibition of MAPK14 Kinase Activity. To be noted: concentration not given here.
The target in assay [11] is EGFR (murine) (UniProt P00533). To be noted: nih3t3.
Assay [12] concerns the target EGFR (human) (UniProt P00533). To be noted: a431.
Assay [13] deals with MAPK14 (UniProt Q16539). Nature of the assay: Cascade Assay for Inhibitors of the MAP Kinase Pathway.
In assay [14] the target is EGFR (mouse) (UniProt P00533). Conditions: balb/mk.
The subject of the next assay is MAPK14 (Drosophila). In words: p38 Kinase Inhibition. Conditions: sf9.
Assay [15] deals with EGFR (human) (UniProt P00533).
Another assay has as its target MAPK14 (human) (UniProt Q16539). In words: p38-alpha Kinase Inhibition. Conditions: concentration not given here.
In another assay the target is ROCK2 (rat) (UniProt Q62868). In words: ROCK-II Kinase Inhibition. To be noted: concentration not given here.
The target in assay [16] is MAPK14 (UniProt Q16539). Nature of the assay: MAPK Kinase Inhibition.
Assay [17] concerns the target EGFR (UniProt P00533). This is another data set of the same source.
The target in assay [18] is CDK2 (human) (UniProt P24941). Nature of the assay: Enzyme Assay.
The target in assay [19] is CDK2 (UniProt P24941). Nature of the assay: Enzyme Assay.
Assay [20] concerns the target CDK2 (human) (UniProt P24941). Nature of the assay: Enzyme Assay. The source holds these as a separate data set.
The target in assay [21] is CDK2 (UniProt P24941). In words: Enzyme Assay. This is another data set of the same source.
In assay [22] the target is MAPK14 (UniProt Q16539). In words: p38-alpha Kinase Inhibition. To be noted: concentration not given here.
In assay [23] the target is ROCK2 (UniProt O75116). Nature of the assay: ROCK2 Kinase Inhibition. To be noted: concentration not given here.
For assay [24], the target named is EGFR (UniProt P00533). The source holds these as a separate data set.

Sequence of EGFR (murine) (P00533 whole entry, looked up): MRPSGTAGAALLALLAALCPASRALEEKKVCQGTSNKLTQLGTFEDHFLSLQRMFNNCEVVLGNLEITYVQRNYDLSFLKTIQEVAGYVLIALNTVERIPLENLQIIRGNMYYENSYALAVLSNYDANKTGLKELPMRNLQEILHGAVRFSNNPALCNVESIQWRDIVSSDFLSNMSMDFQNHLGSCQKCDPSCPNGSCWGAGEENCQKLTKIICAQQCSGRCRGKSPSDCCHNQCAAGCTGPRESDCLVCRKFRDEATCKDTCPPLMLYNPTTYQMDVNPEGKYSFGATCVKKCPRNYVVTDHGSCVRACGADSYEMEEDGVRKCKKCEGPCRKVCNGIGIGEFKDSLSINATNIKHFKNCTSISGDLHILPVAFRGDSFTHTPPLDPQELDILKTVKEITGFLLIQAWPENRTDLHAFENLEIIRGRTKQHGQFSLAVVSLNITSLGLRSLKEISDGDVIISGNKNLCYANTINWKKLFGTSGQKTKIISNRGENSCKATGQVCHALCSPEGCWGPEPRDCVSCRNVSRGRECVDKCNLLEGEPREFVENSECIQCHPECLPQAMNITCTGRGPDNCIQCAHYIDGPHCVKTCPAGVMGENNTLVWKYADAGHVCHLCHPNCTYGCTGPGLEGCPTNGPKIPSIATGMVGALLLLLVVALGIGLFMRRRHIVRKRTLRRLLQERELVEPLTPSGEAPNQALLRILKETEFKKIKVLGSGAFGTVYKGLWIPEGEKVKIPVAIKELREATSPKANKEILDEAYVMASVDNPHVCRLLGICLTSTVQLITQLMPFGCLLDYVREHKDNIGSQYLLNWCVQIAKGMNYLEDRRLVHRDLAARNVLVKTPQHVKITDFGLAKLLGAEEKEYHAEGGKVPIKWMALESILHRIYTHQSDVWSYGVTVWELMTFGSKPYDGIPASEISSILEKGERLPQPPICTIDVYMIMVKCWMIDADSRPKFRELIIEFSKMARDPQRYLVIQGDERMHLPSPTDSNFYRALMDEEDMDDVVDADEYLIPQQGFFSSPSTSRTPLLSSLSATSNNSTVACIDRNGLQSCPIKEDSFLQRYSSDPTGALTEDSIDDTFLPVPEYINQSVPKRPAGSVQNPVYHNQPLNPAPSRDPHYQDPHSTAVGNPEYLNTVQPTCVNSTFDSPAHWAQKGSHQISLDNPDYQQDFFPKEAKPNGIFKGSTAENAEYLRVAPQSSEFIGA
Sequence of EGFR (human) (P00533 whole entry, looked up): as above
Sequence of EGFR (P00533 whole entry, looked up): as above
Sequence of MAPK14 (Q16539 whole entry, looked up): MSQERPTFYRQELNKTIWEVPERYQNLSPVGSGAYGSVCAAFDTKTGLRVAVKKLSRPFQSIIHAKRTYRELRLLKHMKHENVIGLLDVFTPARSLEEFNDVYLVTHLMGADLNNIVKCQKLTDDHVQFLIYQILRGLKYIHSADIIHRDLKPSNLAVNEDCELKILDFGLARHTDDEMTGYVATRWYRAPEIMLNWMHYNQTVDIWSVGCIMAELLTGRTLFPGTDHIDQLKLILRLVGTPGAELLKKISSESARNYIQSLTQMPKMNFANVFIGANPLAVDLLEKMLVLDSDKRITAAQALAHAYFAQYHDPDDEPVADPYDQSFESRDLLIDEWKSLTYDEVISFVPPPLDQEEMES
Sequence of MAPK14 (human) (Q16539 whole entry, looked up): as above

Take `O=C1NC(=O)C(c2cn(CCOCCO)c3ccccc23)=C1c1c[nH]c2ccccc12`: at EGFR [1], the inhibition amounted to 0.
One may read the IC50 as the concentration needed to halve the response being measured. A lower IC50 goes with inhibition by little substance. On MAPK14 [2], `CSc1ccc(-c2ncn(C3CCN(CCC(=O)O)CC3)c2-c2ccnc(SC)n2)cc1` gave an IC50 of less than 50 µM.
The molecule `CN1C2CC[C@@]1(Nc1ncc3ncnc(Nc4ccc(F)c(Cl)c4)c3n1)CC(O)C2` (stereo not given in full) yielded an IC50 in the assay with EGFR (murine) [3] of more than 10 µM.
Consider `CC(=O)OCCCCc1nc(-c2ccc(F)cc2)c(-c2ccncc2)n1COCC[Si](C)(C)C`, for which the inhibition at MAPK14 [2] (concentration not given here) turned out to be 74%.
`COC(=O)CCc1c(C)c[nH]c1C=C1C(=O)Nc2ccccc21` showed an IC100 in the assay with EGFR (murine) [4] of 100 µM.
In the assay with EGFR (mouse) [5], `Cc1nc2cc3nc(-c4ccccc4)cnc3cc2n1C` had an IC50 of more than 30 µM.
At EGFR [6], `Cc1cccc(Nc2ncnc3cc(NCCCN4CCCCC4)ncc23)c1` yielded an IC50 of 5.6 nM.
`Oc1cc2cc(-c3cccnc3)cnc2cc1O` had an IC50 at EGFR [7] of 1.25 µM.
As to `C#Cc1cccc(Nc2ncnc3ccc(OCCCCNCCS(C)(=O)=O)cc23)c1`, the IC50 on EGFR (human) [8] came to 0.045 µM.
Still for that read-out and setting: the figure for `CS(=O)(=O)CCNCCCCOc1ccc2ncnc(Nc3ccc(F)c(Cl)c3)c2c1` is 0.071 µM.
In the case of `Brc1c(Br)c(Br)c2[nH]nnc2c1Br`, the inhibition against ROCK2 [9] is 9%; at MAPK14 [10], -7%.
As to `O=C1Nc2ccccc2/C1=C/c1ccncc1`, in the assay with EGFR (murine) [11], the IC50 was more than 100 µM.
As for `CC(C)(C)c1cc(C=C(C#N)C(N)=S)cc(C(C)(C)C)c1`, the IC50 against EGFR (human) [12] stood at 20 µM. This counts as double-digit micromolar.
For the molecule `COc1ccc(CN(Cc2ccc(OC)cc2)S(=O)(=O)c2cc(C(=O)NOCC3CC3)c(Nc3ccc(I)cc3Cl)c(F)c2F)cc1`, at MAPK14 [13], the IC50 is more than 3 µM.
`Cc1c(-c2ccccc2)[nH]c2ncnc(Nc3cccc(Cl)c3)c12` had an IC50 in the assay with EGFR (mouse) [14] of more than 50 µM.
As to `COc1ccc(OC)c(/C=C2\C(=O)Nc3ccccc32)c1`, the IC50 in the assay with EGFR (murine) [11] was found to be 11 µM. That is a double-digit micromolar value.
The molecule `Cc1cc(F)ccc1-c1nc(N(C(N)=O)c2c(F)cccc2F)ccc1CO` showed an IC50 in the assay on MAPK14 (Drosophila) of 0.027 µM.
Regarding `COc1cc2ncc(C#N)c(Nc3ccc(Sc4nc(-c5ccccc5)cs4)c(Cl)c3)c2cc1C(C(N)=O)C(CN(C)C)N(C)C` (stereo not given), the IC50 at EGFR (human) [15] came to 3.2 µg/mL (≈ 4.76 µM).
`CC(C)(C)c1cc(C=C(C#N)C#N)cc(C(C)(C)C)c1O` displayed an IC50 on EGFR (human) [12] of 0.1 µM. In other words, the sub-micromolar range.
For the molecule `O=C1Nc2ccccc2/C1=C/c1ccccc1`, in the assay with EGFR (murine) [11], the IC50 is more than 100 µM.
Regarding `COc1cc(OC)c(/C=C2/C(=O)Nc3ccccc32)c(OC)c1`, the results for the activity on MAPK14 (human) and on ROCK2 (rat) were 86% and 96%, respectively.
The molecule `COc1cc(OC)cc(-c2cc3cnc(N)nc3nc2NC(=O)NC(C)(C)C)c1` came in with an IC50 on MAPK14 [16] of more than 50 µM.
As for `Cc1cc(F)ccc1-c1nc(N(C(N)=O)c2c(Cl)cccc2Cl)ccc1CO`, the 50% inhibitory concentration (IC50) in the assay on MAPK14 (Drosophila) was found to be 0.002 µM.
As for `CNc1cc2ncnc(Nc3cccc(Br)c3)c2cn1`, the IC50 came to 0.016 µM at EGFR [17] and 0.13 nM against EGFR [6].
With `O=C1Nc2ccc(Cl)cc2/C1=C1/Nc2ccccc2C1=O`, the IC50 stood at 0.55 µM against CDK2 (human) [18], 0.55 µM against CDK2 [19], 0.75 µM against CDK2 (human) [20] and 0.75 µM on CDK2 [21].
Consider `CN(C)c1cc2ncnc(Nc3cccc(Br)c3)c2cn1`, for which the IC50 against EGFR [17] was 0.014 µM; at EGFR [6], 0.09 nM.
As to `O=C1/C(=C2\Nc3ccccc3C2=O)Nc2ccccc21`, the IC50 on CDK2 (human) [18] is more than 1000 µM; against CDK2 [19], more than 1000 µM; against CDK2 (human) [20], 70 µM; against CDK2 [21] it was 70 µM.
As for `CN(C)CCCn1cc(C2=C(c3c[nH]c4ccccc34)C(=O)NC2=O)c2ccccc21`, the figures for the activity at CDK2 [21] (concentration not given here), on MAPK14 [22] and on ROCK2 [23] were 42%, 99% and 89%, respectively. On EGFR [1], the inhibition worked out at 0.
For `CN(Cc1cccnc1)S(=O)(=O)c1cc(C(=O)O)c(Nc2ccc(I)cc2Cl)c(F)c1F`, the IC50 against MAPK14 [13] is more than 3 µM.
For `CNC(=O)N1CCN(Cc2ccnc(Nc3ncc(C#N)s3)c2C)CC1`, the IC50 was 13.7 µM against CDK2 [21] and more than 19.2 µM at EGFR [24].
`COc1ccc(/C=C/c2cnc3cc(OC)c(OC)cc3c2)cc1` showed an IC50 at EGFR [7] of more than 20 µM.
